Assay results as given in the NIST ThermoML archive (doi:10.1016/j.jct.2010.04.013).

Assay: mn = molality of the nth substance listed, in mol/kg
Details: 101 kPa, Liquid; for mass density: Vibrating tube method; for speed of sound: Pulse-echo method

[Ba+2].[O-][Cl+3]([O-])([O-])[O-].[O-][Cl+3]([O-])([O-])[O-] [barium perchlorate] + CO
Details	mass density, 283.15 K [kg/m3]	mass density, 288.15 K [kg/m3]	mass density, 293.15 K [kg/m3]	mass density, 298.15 K [kg/m3]	mass density, 303.15 K [kg/m3]	mass density, 308.15 K [kg/m3]	mass density, 313.15 K [kg/m3]	speed of sound, 298.15 K [m/s]
m1 = 0.04405	811.658	806.964	802.257	797.534	792.793	788.031	783.24	1104.8
m1 = 0.05789	815.181	810.483	805.768	801.038	796.29	791.514	786.709	1105.8
m1 = 0.07152	818.62	813.919	809.196	804.461	799.707	794.928	790.115	1106.8
m1 = 0.08565	822.272	817.565	812.834	808.092	803.33	798.541	793.738	–
m1 = 0.09942	825.796	821.081	816.346	811.597	806.83	802.029	797.22	1108.7
m1 = 0.1123	829.125	824.405	819.663	814.91	810.139	805.341	800.51	1109.7
m1 = 0.1401	836.397	831.665	826.908	822.143	817.357	812.546	807.7	1111.7
m1 = 0.1665	843.399	838.652	833.885	829.105	824.3	819.488	814.642	1113.2
m1 = 0.1922	850.26	845.49	840.721	835.928	831.119	826.278	821.422	1115.2
m1 = 0.2169	856.95	852.176	847.385	842.583	837.763	832.919	828.046	1116.9
m1 = 0.2417	863.79	859.009	854.206	849.387	844.546	839.692	834.813	1118.6

[Ba+2].[O-][Cl+3]([O-])([O-])[O-].[O-][Cl+3]([O-])([O-])[O-] [barium perchlorate] + C[S+](C)[O-]
Details	mass density, 293.15 K [kg/m3]	mass density, 298.15 K [kg/m3]	mass density, 303.15 K [kg/m3]	mass density, 313.15 K [kg/m3]	mass density, 323.15 K [kg/m3]	mass density, 333.15 K [kg/m3]	speed of sound, 298.15 K [m/s]
m1 = 0.03102	1108.57	1103.55	1098.53	1088.51	1078.49	1068.47	–
m1 = 0.04247	1111.68	1106.66	1101.64	1091.63	1081.62	1071.61	1485.2
m1 = 0.05458	1114.98	1109.97	1104.95	1094.94	1084.94	1074.94	1485.5
m1 = 0.06931	1119.03	1114.02	1109	1099	1089.01	1079.01	1486
m1 = 0.08432	1123.18	1118.17	1113.16	1103.17	1093.18	1083.2	1486.3
m1 = 0.1063	1129.31	1124.31	1119.3	1109.32	1099.34	1089.37	1486.8
m1 = 0.1359	1137.67	1132.66	1127.67	1117.69	1107.73	1097.78	1487.8
m1 = 0.1651	1146.06	1141.06	1136.07	1126.1	1116.15	1106.21	1488.5
m1 = 0.191	1153.55	1148.55	1143.57	1133.61	1123.67	1113.74	1489.3
m1 = 0.222	1162.7	1157.71	1152.72	1142.77	1132.84	1122.92	1490.4
m1 = 0.25	1171.03	1166.04	1161.06	1151.11	1141.21	1131.31	1491.5

O=S(=O)([O-])C(F)(F)F.O=S(=O)([O-])C(F)(F)F.[Be+2] [beryllium 1,1,1-trifluoromethanesulfonate] + CO
Details	mass density, 283.15 K [kg/m3]	mass density, 288.15 K [kg/m3]	mass density, 293.15 K [kg/m3]	mass density, 298.15 K [kg/m3]	mass density, 303.15 K [kg/m3]	mass density, 308.15 K [kg/m3]	mass density, 313.15 K [kg/m3]	speed of sound, 298.15 K [m/s]
m1 = 0.05456	809.901	805.251	800.58	795.899	791.207	786.489	781.742	1105.4
m1 = 0.06745	812.098	807.453	802.786	798.111	793.424	788.711	783.973	1106.2
m1 = 0.08472	815.041	810.402	805.745	801.074	796.384	791.686	786.956	1107.2
m1 = 0.1077	818.969	814.336	809.691	805.032	800.359	795.664	790.942	1108.5
m1 = 0.1249	821.918	817.294	812.65	807.996	803.329	798.644	793.931	1109.5
m1 = 0.1421	824.885	820.267	815.629	810.983	806.316	801.638	796.936	1110.3
m1 = 0.1594	827.866	823.252	818.621	813.979	809.325	804.652	799.953	1111.1
m1 = 0.177	830.948	826.34	821.715	817.077	812.425	807.764	803.073	1111.9
